Assay results taken from patent publication US20230181746A1, “BENZOYLHYDRAZIDE-DERIVED HDAC DEGRADERS AS THERAPEUTICS FOR TREATING CANCER AND OTHER HUMAN DISEASES” (University of Florida Research Foundation, Inc., priority 2020, published 2023).

Columns and labels:
[1] = biological target: T1, HDAC2 (Homo sapiens, UniProt Q92769); test: In vitro HDAC activity assay (HDAC-Glo I/II), HDAC2; type: biochemical; parameters: purchased BPS Bioscience 50002; conditions: average of three independent assays ± standard deviation
T1 sequence (Q92769 whole entry, the tested form may be a part): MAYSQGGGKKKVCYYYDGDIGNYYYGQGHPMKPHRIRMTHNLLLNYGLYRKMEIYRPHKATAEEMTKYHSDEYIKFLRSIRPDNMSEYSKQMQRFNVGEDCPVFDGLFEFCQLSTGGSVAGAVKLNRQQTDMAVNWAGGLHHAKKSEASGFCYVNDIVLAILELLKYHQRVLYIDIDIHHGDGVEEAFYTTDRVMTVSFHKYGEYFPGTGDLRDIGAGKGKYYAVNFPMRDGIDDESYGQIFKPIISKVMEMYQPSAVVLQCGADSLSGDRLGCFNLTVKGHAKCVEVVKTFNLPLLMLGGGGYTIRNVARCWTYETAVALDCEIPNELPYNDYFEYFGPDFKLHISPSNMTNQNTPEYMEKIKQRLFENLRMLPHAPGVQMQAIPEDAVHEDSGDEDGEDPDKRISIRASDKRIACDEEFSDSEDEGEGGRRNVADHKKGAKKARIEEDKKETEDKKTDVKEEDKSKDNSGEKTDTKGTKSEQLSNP
Procedure: (§1) Purified HDAC1, HDAC2, and HDAC3 (in complex with the deacetylase activation domain of the human NCOR2 (amino acids 395-498)) were obtained from Enzo Life Sciences (HDAC1, catalog # BML-SE456-0050) and BPS Bioscience (HDAC2, catalog #50002 and HDAC3, catalog #50003), respectively. The enzyme activities were tested using the HDAC-Glo I/II reagents (Promega) according to a protocol provided by the manufacturer.

[2] = biological target: T2, HDAC1 (Homo sapiens, UniProt Q13547); test: In vitro HDAC activity assay (HDAC-Glo I/II), HDAC1; type: biochemical; parameters: purchased Enzo Life Sciences BML-SE456-0050; conditions: average of three independent assays ± standard deviation
T2 sequence (Q13547 whole entry): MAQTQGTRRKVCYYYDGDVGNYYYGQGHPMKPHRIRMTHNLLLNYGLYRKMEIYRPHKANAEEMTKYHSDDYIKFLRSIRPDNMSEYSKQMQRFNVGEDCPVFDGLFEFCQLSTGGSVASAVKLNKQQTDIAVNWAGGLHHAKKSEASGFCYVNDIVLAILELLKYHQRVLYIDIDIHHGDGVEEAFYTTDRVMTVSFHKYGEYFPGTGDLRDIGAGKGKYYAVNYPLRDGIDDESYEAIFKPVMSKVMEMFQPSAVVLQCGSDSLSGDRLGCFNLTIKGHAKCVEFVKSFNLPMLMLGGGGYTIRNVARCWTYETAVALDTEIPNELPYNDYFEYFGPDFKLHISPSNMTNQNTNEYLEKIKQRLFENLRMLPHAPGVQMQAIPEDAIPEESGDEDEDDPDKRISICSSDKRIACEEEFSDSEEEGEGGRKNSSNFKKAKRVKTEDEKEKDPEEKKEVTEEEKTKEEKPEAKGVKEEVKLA
Procedure: as §1

[3] = biological target: HDAC3 (Homo sapiens, UniProt O15379); test: HDAC3 degradation in MDA-MB-231 xenograft tumors; type: in vivo; parameters: from tissue; host or cells: MDA-MB-231 xenograft tumours from NSG mice; conditions: female NSG mice, MDA-MB-231 xenografts, 50 mg/kg i.p., tumors 24 h after dosing
HDAC3, sequence (O15379 whole entry): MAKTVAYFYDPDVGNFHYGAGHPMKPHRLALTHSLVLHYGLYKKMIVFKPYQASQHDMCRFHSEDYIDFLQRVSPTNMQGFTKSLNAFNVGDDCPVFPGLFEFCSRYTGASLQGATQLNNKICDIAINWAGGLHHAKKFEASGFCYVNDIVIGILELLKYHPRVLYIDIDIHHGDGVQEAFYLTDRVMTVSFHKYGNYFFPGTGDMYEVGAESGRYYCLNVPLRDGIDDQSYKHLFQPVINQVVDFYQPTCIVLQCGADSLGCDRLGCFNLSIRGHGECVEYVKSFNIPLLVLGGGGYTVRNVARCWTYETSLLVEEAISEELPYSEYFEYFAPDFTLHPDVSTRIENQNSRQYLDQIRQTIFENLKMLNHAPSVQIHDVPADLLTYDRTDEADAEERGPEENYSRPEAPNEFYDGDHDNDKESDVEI
HDAC3, sequence (Q9Y618 395-498 partner limits assumed): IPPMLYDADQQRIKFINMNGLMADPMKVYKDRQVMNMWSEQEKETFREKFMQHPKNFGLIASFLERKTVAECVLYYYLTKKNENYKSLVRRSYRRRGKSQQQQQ
Procedure: NSG mice bearing MDA-MB-231 xenografts were dosed with vehicle or XZ9002 (50 mg/kg) by i.p. Tumors were dissected from euthanized mice 24 h after dosing. The tumor lysates were analyzed by WB. The quantification is shown in lower panels. ***: p<0.0001 (t-test vs vehicle).

[4] = biological target: T3, HDAC3 (in complex with the deacetylase activation domain of the human NCOR2 (amino acids 395-498)) (Homo sapiens, UniProt O15379); test: In vitro HDAC activity assay (HDAC-Glo I/II), HDAC3; type: biochemical; conditions: HDAC-Glo I/II; average of three independent assays ± standard deviation
T3 construct: purchased BPS Bioscience 50003
T3 sequence (O15379 whole entry, the tested form may be a part): as the sequence (O15379 whole entry) above
T3 sequence (Q9Y618 395-498 partner limits assumed): as the sequence (Q9Y618 395-498 partner limits assumed) above
Procedure: as §1

[5] = test system: MDA-MB-468 cells; test: Cell viability assay (CellTiter-Glo); type: cell-based; conditions: MDA-MB-468, 72 h; similar trends in MDA-MB-231 and T47D cells
Procedure: MDA-MB-468, MDA-MB-231, and T47D cells were treated with the indicated compounds at different concentrations for 72 h. Cell viability was assessed with CellTiter-Glo® reagents.
Cell lines were obtained from ATCC and subsequently authenticated. Cells were cultured with DMEM supplemented with 10% bovine calf serum, penicillin to 10 units/mL, and streptomycin to 10 μg/mL. For viability assays, 5,000 cells/well were seeded in 96-well plates. Compounds at a specified concentration or DMSO were added 24 h later. Viability assays were performed 72 h after compound addition using the CellTiter-Glo reagents (Promega). For colony formation assay, cells (˜1,000 cells/well) were seeded in a 24-well plate in quadruplicates. At 24 h after seeding, DMSO, XZ9002, or XZ9002-NC were added at a specified concentration. Medium was replaced with freshly prepared medium containing DMSO, XZ9002 or XZ9002-NC every five days until visible colonies appeared, typically in 15 to 20 days after initial cell seeding. Cells were fixed with 4% paraformaldehyde for 15 min and stained with 2% methylene blue in 20% ethanol for 30 min to 1 h. The cells were washed twice with distilled water and dried in air. For western blotting, cell cultures were exposed to compounds as indicated in relevant figures. Medium was removed from culture plate, and 1 x passive lysis buffer was then added, the plates were frozen at −80° C. overnight and thawed at room temperature. The total cell lysates were mixed with a one fifth volume of 6x SDS sample buffer, heated at 95° C. for 5 min and cooled on ice. The lysates were cleared by centrifugation and then subjected to SDS-PAGE and western blotting essentially as described. […]

[6] = biological target: T1, HDAC2; test: HDAC2 protein level in breast cancer cell lines, Western blot; type: cell-based; conditions: MDA-MB-468 cells, 14 h
Procedure: (§2) FIG. 3A: Western blot showing HDAC protein levels in MDA-MB-468 cells treated with the indicated concentration of XZ9002 for 14 h. FIG. 3B: pretreatment with 1 μM MG132, or 10 μM VHL032 for 1 h blocked the degradation of HDAC3 by XZ9002 {125 nM}. […] NC: XZ9002-NC. FIG. 3C: time-dependent experiment in MDA-MB-468 cells after treatment with 125 nM XZ9002 at the indicated time points. FIG. 3D: MDA-MB-468 cells were incubated with 125 nM of XZ9002 for 14 h followed by drug washout, and incubation of the cells in drug-free medium for an additional time. Data are presented as representative figures of two independent experiments.
(§3) The culture of the triple-negative breast cancer cell line MDA-MB-468 and the ER+ breast cancer cell line T47D was exposed to vehicle control (DMSO) and the indicated compounds at specified concentrations for 14 h. Cells were lysed for WB with antibodies against the indicated proteins. Antibodies against acetylated histones at specific sites (H3K27 and H4K5) and acetyl-lysine were used to assess levels of histone acetylation. Levels of HDAC3 were normalized against that of tubulin and % of HDAC3 protein levels in cells treated with the indicated compounds relative to that in DMSO control is shown.
FIGS. 8A-8B show the cellular activity of XZ9002. […] Cells were lysed for WB. The relative HDAC3 protein level in each sample is shown. […]

[7] = biological target: T2, HDAC1; test: HDAC1 protein level in breast cancer cell lines, Western blot; type: cell-based; conditions: MDA-MB-468 cells, 14 h
Procedure: as §2, §3
Cell lines were obtained from ATCC and subsequently authenticated. […]

[8] = test system: histone acetylation (H3K27ac, H4K5ac, acetyl-lysine); test: Histone acetylation in cells, Western blot; type: cell-based; conditions: MDA-MB-468 cells; only moderate effects compared to 15 and CRBN-based PROTACs
Procedure: as §3
Cell lines were obtained from ATCC and subsequently authenticated. Cells were cultured with DMEM supplemented with 10% bovine calf serum, penicillin to 10 units/mL, and streptomycin to 10 μg/mL. For viability assays, 5,000 cells/well were seeded in 96-well plates. Compounds at a specified concentration or DMSO were added 24 h later. Viability assays were performed 72 h after compound addition using the CellTiter-Glo reagents (Promega). For colony formation assay, cells (˜1,000 cells/well) were seeded in a 24-well plate in quadruplicates. At 24 h after seeding, DMSO, XZ9002, or XZ9002-NC were added at a specified concentration. […]

[9] = test system: NCI-60 panel of 60 cancer lines; test: NCI-60 cell line panel proliferation; type: cell-based; conditions: five doses; leukemia, NSCLC, colon, CNS, melanoma, ovarian, renal, prostate and breast cancer lines
Procedure: The indicated cancer cell lines were treated with XZ9002 at five different doses. The percentage growth relative to the cell numbers before compound exposure was plotted against the XZ9002 concentrations in the log scale.

IC50 [1]: 1550 ± 70 nM | IC50 [2]: 650 ± 70 nM | HDAC3 degradation in xenograft tumor [3]: effectively degrade | IC50 [4]: 350 ± 70 nM | change in HDAC2 protein level [6]: no significant changes | change in HDAC1 protein level [7]: no significant changes
Structure (SMILES): CCCNNC(=O)c1ccc(-c2ccc(NC(=O)CCCCCCC(=O)N[C@H](C(=O)N3C[C@H](O)C[C@H]3C(=O)N[C@@H](C)c3ccc(-c4scnc4C)cc3)C(C)(C)C)cc2)cc1 [XZ9002, N^1—((S)-1-((2S,4R)-4-hydroxy-2-(((S)-1-(4-(4-methylthiazol-5-yl)phenyl)ethyl)carbamoyl)pyrrolidin-1-yl)-3,3-dimethyl-1-oxobutan-2-yl)-N^5-(4′-(2-propylhydrazine-1-carbonyl)-[1,1′-biphenyl]-4-yl)octanediamide]
antiproliferative activity (in words) [5]: more potent in killing cancer cells | histone acetylation [8]: dose-dependently increased | inhibition of proliferation [9]: effectively inhibits the proliferation
